Like-named read-outs stand apart in the source and are kept apart here.
Assays:
[1] = test system: H23 cells (pulmonary adenocarcinoma derived, SMARCA2/A4 deficient); assay: Cell growth suppression experiment (CellTiter-Glo), H23 cells; format: cell-based; conditions: for cell survival rate (%) at treatment with 10 μM, H23: 6 days; for IC50: Homo sapiens, NCI-H23, 144 h, cultured for 6 days, CellTiter-Glo;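 on all read-outs here: compounds tested as CBP/P300 agents, added one day after plating in 96-well plates with DMEM-F12 plus 10% fetal bovine serum, 0.1% DMSO final, luminescent viability read-out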
[2] = test system: DMS114 cells (small cell lung cancer derived, SMARCA2/A4 deficient); assay: Cell growth suppression experiment (CellTiter-Glo), DMS114 cells; format: cell-based; conditions: for IC50: Homo sapiens, DMS-114, 144 h, cultured for 6 days, CellTiter-Glo; for cell growth suppression effect on DMS114 cells: result in words
[3] = test system: TOV112D cells (small cell ovarian cancer derived, SMARCA2/A4 deficient); assay: Cell growth suppression experiment (CellTiter-Glo), TOV112D cells; format: cell-based; conditions: for cell survival rate (%) at treatment with 10 μM, TOV112D: 6 days; for IC50: Homo sapiens, 144 h, cultured for 6 days, CellTiter-Glo;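 on all read-outs here: luminescent viability read-out of TOV112D cells grown in DMEM-F12 with 10% fetal bovine serum, compound exposure starting one day after plating, DMSO at 0.1% final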
[4] = test system: H460 cells (pulmonary adenocarcinoma derived, SMARCA2/A4 wild-type); assay: Cell growth suppression experiment (CellTiter-Glo), H460 cells; format: cell-based; conditions: Homo sapiens, NCI-H460, 144 h; for viability at 10 µM: 6 days, read-out: cell survival rate (%) at treatment with 10 μM, H460; for IC50: cultured for 6 days, CellTiter-Glo;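 on all read-outs here: luminescent viability read-out, compound added one day after seeding at 0.1% final DMSO, cells grown in DMEM-F12 with 10% fetal bovine serum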
[5] = test system: JMU-RTK-2 cells (malignant rhabdoid tumor derived, SMARCB1 deficient); assay: Selectivity in cell growth suppression, JMU-RTK-2 cells; conditions: for IC50: 144 h; for Selective Index: IC50 of JMU-RTK-2+SMARCB1 cells with respect to IC50 of JMU-RTK-2 cells
Source text: (§1) The cytotoxic activity of a CBP/P300 inhibitor on JMU-RTK-2 cells and JMU-RTK-2+SMARCB1 cells was compared.

CBP bromodomain = CBP bromodomain (Homo sapiens (Human), UniProt Q92793); assay: BRD inhibition experiment, CBP bromodomain TR-FRET Assay Kit
[6] = test system: G-401 cells (malignant rhabdoid tumor derived, SMARCB1 deficient); assay: Cell growth suppression experiment (CellTiter-Glo), G-401 cells; conditions: for cell survival rate (%) at treatment with 10 μM, G-401: G-401 cells, 10 μM (maximum treatment concentration), 3 days; for IC50: Homo sapiens, G-401, 72 h
Method: (§2) G-401 cells and G-402 cells were cultured under the conditions of 5% CO2 at 37° C. in a 10% fetal bovine serum and 1% penicillin/streptomycin-containing McCoy's 5A medium. CHLA-06-ATRT cells were cultured under the conditions of 5% CO2 at 37° C. in a 10% B-27 supplement, 20 ng/mL EGF, 20 ng/mL FGF, and 1% penicillin/streptomycin-containing DMEM:F12 medium.

[7] = test system: 786-O cells (renal cancer derived, SMARCB1 wild-type); assay: Cell growth suppression experiment (CellTiter-Glo), 786-O cells; conditions: Homo sapiens, 786-0, 72 h; for IC50: read-out: IC50 786-O; for viability at 10 µM: read-out: cell survival rate (%) at treatment with 10 μM, 786-O
Method: as §2

[8] = test system: JMU-RTK-2+SMARCB1 cells (JMU-RTK-2 cells overexpressing SMARCB1); assay: Selectivity in cell growth suppression, JMU-RTK-2+SMARCB1 cells; conditions: 144 h
Source text: as §1

recombinant p300 = recombinant p300 (Homo sapiens (Human), UniProt Q09472); assay: HAT activity inhibiting experiment, SensoLyte HAT (p300) Assay Kit; format: biochemical; conditions: recombinant p300, acetyl-CoA, histone H3 peptide, fluorescence; read-out: HAT activity inhibition IC50
Method: 50 μL of Stop Solution was added to quench the reaction. 100 μL of p300 Developer solution diluted 50-fold with an assay buffer was added, and the mixture was incubated for 30 minutes at room temperature under shaded conditions.

[9] = test system: SMARCA2/A4 deficient cells, i.e., H23 cells, DMS114 cells, and TOV112D cells; assay: Cell growth suppression experiment, SMARCA2/A4 deficient cells (summary of Example 8); format: cell-based; conditions: H23, DMS114 and TOV112D cells versus H460 cells; result in words
Method: Cytotoxic activity of a CBP/P300 on SMARCA2/A4 deficient cells, i.e., H23 cells (pulmonary adenocarcinoma derived), TOV112D cells (small cell ovarian cancer derived), and DMS114 cells (small cell lung cancer derived), and SMARCA2/A4 wild-type cells, i.e., H460 cells (pulmonary adenocarcinoma derived) was compared.
H23 cells, TOV112D cells, DMS114 cells, and H460 cells were cultured under 5% CO2 conditions at 37° C. in a 10% fetal bovine serum and 1% penicillin/streptomycin-containing DMEM-F12 medium.
Cells were seed on a 96-well plate at 250 to 500 cells per well. […] After completion of culture, the cell survival rate was measured using CellTiter-Glo Luminescent Cell Viability Assay (Promega, G770).

[10] = test system: SMARCB1 deficient cells, i.e., G-401 cells, G-402 cells, and CHLA-06-ATRT cells; assay: Cell growth suppression experiment, SMARCB1 deficient cells (summary of Example 1); conditions: G-401, G-402 and CHLA-06-ATRT cells versus 786-O cells; result in words
Method: as §2

[11] = test system: CHLA-06-ATRT cells (atypical teratoid/rhabdoid tumor derived, SMARCB1 deficient); assay: Cell growth suppression experiment (CellTiter-Glo), CHLA-06-ATRT cells; conditions: 72 h, read-out: IC50 CHLA-06-ATRT
Method: as §2

[12] = test system: histone H3K27 acetylation in G-401 cells and CHLA-06-ATRT cells; assay: Intracellular histone H3K27 acetylation inhibition experiment (Western blotting); format: cell-based; conditions: G-401 and CHLA-06-ATRT cells, 24 hours, FIG. 7
Method: G-401 cells (malignant rhabdoid tumor derived) and CHLA-06-ATRT cells (atypical teratoid/rhabdoid tumor derived) were seeded on a 6-well plate at 500000 cells per well. […] After completion of culture, the cells were detached through trypsin treatment. The culture was centrifuged and the supernatant was removed to recover cell pellets. 150 μL of RIPA buffer was added to the cell pellets to lyse the cells to extract the entire protein. Acetylation of histone H3K27 was detected by Western blotting. An anti-acetylation H3K27 antibody (Cell Signaling Technology, 8173) was used for the detection of acetylated H3K27 (FIG. 7).

[13] = test system: SMARCB1 deficient cell group versus SMARCB1 wild-type cell group; assay: Experiment comparing sensitivity depending on the presence/absence of SMARCB1; format: cell-based; conditions: 6 days culture, CellTiter-Glo, FIG. 3; result in words
Source text: Cytotoxic activity of a CBP/P300 inhibitor on SMARCB1 deficient cells, i.e., G-401 cells (malignant rhabdoid tumor derived), G-402 cells (malignant rhabdoid tumor derived), JMU-RTK-2 cells (malignant rhabdoid tumor derived), and HS-EU-1 cells (epithelioid sarcoma derived), and SMARCB1 wild-type cells, i.e., 786-O cells (renal cancer derived), VMRC-RCZ cells (renal cancer derived), Caki-1 cells (renal cancer derived), H446 cells (lung cancer derived), ES2 cells (ovarian cancer derived), H460 cells (lung cancer derived), H2228 cells (lung cancer derived), HEK293T cells (normal kidney tissue derived), and H358 cells (lung cancer derived) was compared.

[14] = test system: ARID1 deficient cancer cell group versus ARID1 wild-type cell group; assay: Experiment comparing sensitivity depending on the presence/absence of ARID1; format: cell-based; conditions: 6 days culture, CellTiter-Glo, FIG. 12; result in words
Source text: Cytotoxic activity of a CBP/P300 inhibitor on ARID1 deficient cancer cells, i.e., A2780 cells (ovarian cancer derived), RMG-V cells (ovarian cancer derived), TOV21G cells (ovarian cancer derived), and OVISE cells (ovarian cancer derived), and ARID1 wild-type cells, i.e., H1048 cells, H460 cells, 786-O cells, H2228 cells, H2009 cells, and H358 cells, was compared.

[15] = read-out: JMU-RTK-2 IC50, JMU-RTK-2 cells, cultured for 6 days, CellTiter-Glo
[16] = read-out: IC50 G-401, G-401 cells, cultured for 3 days, CellTiter-Glo cell survival
[17] = read-out: JMU-RTK-2 + SMARCB1 IC50, JMU-RTK-2+SMARCB1 cells, cultured for 6 days, CellTiter-Glo
[18] = read-out: JMU-RTK-2 + SMARCB1 IC50

recombinant p300, sequence (Q09472 whole entry): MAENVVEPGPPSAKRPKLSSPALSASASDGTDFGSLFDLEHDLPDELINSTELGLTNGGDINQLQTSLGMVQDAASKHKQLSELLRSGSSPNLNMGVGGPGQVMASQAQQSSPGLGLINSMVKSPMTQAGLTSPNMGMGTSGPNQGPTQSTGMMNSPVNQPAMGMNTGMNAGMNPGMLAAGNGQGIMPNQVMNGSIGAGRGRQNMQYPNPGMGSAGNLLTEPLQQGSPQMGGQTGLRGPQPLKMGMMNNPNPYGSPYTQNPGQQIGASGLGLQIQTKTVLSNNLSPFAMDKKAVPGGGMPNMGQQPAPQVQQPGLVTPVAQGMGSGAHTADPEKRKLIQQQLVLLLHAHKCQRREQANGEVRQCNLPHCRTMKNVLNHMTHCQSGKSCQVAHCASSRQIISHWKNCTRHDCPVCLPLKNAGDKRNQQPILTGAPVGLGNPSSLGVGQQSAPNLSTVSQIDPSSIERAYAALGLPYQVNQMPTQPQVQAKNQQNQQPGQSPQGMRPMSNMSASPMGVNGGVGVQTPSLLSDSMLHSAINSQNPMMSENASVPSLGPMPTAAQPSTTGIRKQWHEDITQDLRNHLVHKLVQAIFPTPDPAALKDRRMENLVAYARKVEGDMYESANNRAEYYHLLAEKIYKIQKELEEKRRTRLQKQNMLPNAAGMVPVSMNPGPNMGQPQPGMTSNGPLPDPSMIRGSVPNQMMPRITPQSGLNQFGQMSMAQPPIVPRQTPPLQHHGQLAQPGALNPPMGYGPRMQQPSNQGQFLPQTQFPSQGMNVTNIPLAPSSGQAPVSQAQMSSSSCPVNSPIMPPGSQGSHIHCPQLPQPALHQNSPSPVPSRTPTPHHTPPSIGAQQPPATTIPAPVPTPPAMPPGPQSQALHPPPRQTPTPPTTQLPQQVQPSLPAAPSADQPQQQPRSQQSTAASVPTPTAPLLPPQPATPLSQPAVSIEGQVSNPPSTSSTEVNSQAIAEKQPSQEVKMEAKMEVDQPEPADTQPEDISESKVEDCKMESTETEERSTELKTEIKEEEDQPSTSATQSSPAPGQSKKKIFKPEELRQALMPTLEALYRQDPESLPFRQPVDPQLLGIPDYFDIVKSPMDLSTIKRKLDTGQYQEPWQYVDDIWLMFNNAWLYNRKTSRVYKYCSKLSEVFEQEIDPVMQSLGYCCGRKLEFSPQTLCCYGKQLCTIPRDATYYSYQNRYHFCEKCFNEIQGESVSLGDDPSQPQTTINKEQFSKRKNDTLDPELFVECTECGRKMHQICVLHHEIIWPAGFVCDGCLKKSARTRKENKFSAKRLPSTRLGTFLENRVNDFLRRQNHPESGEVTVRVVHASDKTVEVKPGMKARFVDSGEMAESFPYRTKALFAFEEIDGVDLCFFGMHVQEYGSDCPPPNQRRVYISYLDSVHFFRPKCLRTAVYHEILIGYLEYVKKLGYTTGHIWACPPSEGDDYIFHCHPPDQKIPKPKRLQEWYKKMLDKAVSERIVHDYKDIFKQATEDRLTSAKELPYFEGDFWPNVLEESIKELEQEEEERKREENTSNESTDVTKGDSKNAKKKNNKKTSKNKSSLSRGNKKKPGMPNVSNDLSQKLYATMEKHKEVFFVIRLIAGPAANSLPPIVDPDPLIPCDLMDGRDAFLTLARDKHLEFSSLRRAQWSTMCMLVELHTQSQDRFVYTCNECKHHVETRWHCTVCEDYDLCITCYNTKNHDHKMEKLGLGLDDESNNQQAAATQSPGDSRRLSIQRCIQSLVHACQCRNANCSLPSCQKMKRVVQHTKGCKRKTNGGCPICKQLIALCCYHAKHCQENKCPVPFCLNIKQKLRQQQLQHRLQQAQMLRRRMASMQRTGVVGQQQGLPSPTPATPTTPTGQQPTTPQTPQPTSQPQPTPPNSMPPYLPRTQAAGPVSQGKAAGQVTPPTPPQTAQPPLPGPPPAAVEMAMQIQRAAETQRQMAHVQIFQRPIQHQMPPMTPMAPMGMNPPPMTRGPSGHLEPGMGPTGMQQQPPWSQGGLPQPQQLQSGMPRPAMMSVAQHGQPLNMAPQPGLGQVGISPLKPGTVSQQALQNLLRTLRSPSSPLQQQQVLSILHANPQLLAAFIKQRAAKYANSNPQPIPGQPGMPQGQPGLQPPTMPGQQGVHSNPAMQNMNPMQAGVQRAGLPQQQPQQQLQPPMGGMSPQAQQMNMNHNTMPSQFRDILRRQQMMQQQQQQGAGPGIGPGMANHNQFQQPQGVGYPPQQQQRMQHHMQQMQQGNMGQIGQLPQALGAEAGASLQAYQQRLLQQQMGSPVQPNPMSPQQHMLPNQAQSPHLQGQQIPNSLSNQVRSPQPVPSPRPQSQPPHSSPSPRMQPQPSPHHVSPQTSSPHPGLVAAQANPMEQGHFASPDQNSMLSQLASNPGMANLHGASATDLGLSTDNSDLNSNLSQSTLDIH
CBP bromodomain, sequence (Q92793 1085-1192): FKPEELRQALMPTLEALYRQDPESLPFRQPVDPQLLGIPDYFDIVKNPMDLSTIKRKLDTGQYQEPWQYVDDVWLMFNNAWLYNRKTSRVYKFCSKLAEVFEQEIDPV

Row | SMILES | IC50 [1] | IC50 ([2]; DMS114 cells) | viability at 10 µM [4] | IC50 [4] | IC50 [7] | viability at 10 µM [7] | IC50 [3] | IC50 ([5]; read-out: JMU-RTK-2 IC50) | Selective Index [5] | IC50 ([6]; read-out: IC50 G-401) | IC50 [8, 18] | IC50 (recombinant p300) | cell growth suppression effect on SMARCA2/A4 deficient cells [9] | cell growth suppression effect on SMARCB1 deficient cells [10] | other results
1 | CNC(=O)N1CCc2c(c(N3CCCc4cc(-c5cnn(C)c5)c(C(F)F)cc43)nn2C2CCOCC2)C1 [Compound 8] | > 10 µM | 4.01 µM | 101% | > 10 µM | > 10 µM | 92% | – | – | – | – | – | – | – | – | cell survival rate (%) at treatment with 10 μM, H23 [1]: 77%; cell growth suppression effect on DMS114 cells [2]: cell growth suppression effect; cell survival rate (%) at treatment with 10 μM, TOV112D [3]: 91%; IC50 ([3]; TOV112D): > 10 µM; IC50 [5, 15]: 0.9 µM; IC50 (CBP bromodomain): < 0.025 µM; cell survival rate (%) at treatment with 10 μM, G-401 [6]: 65%; IC50 [6, 16]: > 10 µM; IC50 [8, 17]: 9.1 µM
2 | Cn1cc(C(=O)Nc2ccc3c(c2)OCCO3)c2ccccc2c1=O [Compound 12] | > 10 µM | > 10 µM | 100% | > 10 µM | > 10 µM | 104% | > 10 µM | 3.9 µM | 3.9 | > 10 µM | 14.9 µM | – | – | – | cell survival rate (%) at treatment with 10 μM, H23 [1]: 97%; cell survival rate (%) at treatment with 10 μM, DMS114 ([2]; DMS114 cells, 10 μM, 6 days): 86%; cell growth suppression effect on DMS114 cells [2]: cell growth suppression effect; cell survival rate (%) at treatment with 10 μM, TOV112D [3]: 99%; IC50 (CBP bromodomain): < 0.025 µM; cell survival rate (%) at treatment with 10 μM, G-401 [6]: 83%
3 | O=C(Nc1ccc2[nH]ncc2n1)C1CC(F)CN1C(=O)C1(c2ccc(OC(F)F)cc2)CCC(F)(F)CC1 (stereo not shown) [Compound 5] | 1.42 µM | 0.408 µM | 99% | > 10 µM | > 10 µM | 102% | 1.5 µM | 0.2 µM | 45.3 | 0.44 µM | 8.8 µM | 0.1 µM | particularly selective and potent cell growth suppression effect | selective and potent Cell growth suppression effect | –
4 | Cn1cc(-c2ccc3c(c2)CC[C@]32NC(=O)N(CC(=O)N3Cc4cc(F)ccc4OC[C@H]3C(F)(F)F)C2=O)cn1 [Compound 15] | 0.407 µM | 0.0909 µM | 78% | > 10 µM | > 10 µM | 51% | 0.309 µM | 0.0038 µM | 912 | 0.041 µM | 3.4 µM | 0.048 µM | particularly selective and potent cell growth suppression effect | selective and potent Cell growth suppression effect | IC50 [11]: 0.42 µM
5 | CCN(CC)c1ccc(-c2nc3cc(C(=O)NC)ccc3n2Cc2ccn(CC)n2)cn1 [Compound 6] | 1.13 µM | 0.138 µM | 92% | > 10 µM | > 10 µM | 83% | 0.729 µM | 0.055 µM | 23.5 | 0.26 µM | 1.3 µM | 0.16 µM | particularly selective and potent cell growth suppression effect | selective and potent Cell growth suppression effect | –
6 | COc1ccc(CCc2nc3cc(-c4c(C)noc4C)ccc3n2C[C@H](C)N2CCOCC2)cc1Cl [SGC-CBP30, reference compound] | – | – | – | – | – | – | – | – | – | – | – | – | – | – | intracellular histone H3K27 acetylation [12]: reduced treatment concentration dependent intracellular histone H3K27 acetylation; IC50 value for the SMARCB1 deficient cell group compared with the SMARCB1 wild-type cell group [13]: less than the IC50 value for the SMARCB1 wild-type cell group
7 | CO[C@H]1CC[C@H](n2c([C@@H]3CCCC(=O)N3c3ccc(F)c(F)c3)nc3cc(-c4c(C)noc4C)ccc32)CC1 [CCS-1477, reference compound] | – | – | – | – | – | – | – | – | – | – | – | – | – | – | IC50 value for the ARID1 deficient cancer cell group compared with the ARID1 wild-type cell group [14]: less than the IC50 value for the ARID1 wild-type cell group
8 | C[C@H](N(Cc1ccc(F)cc1)C(=O)CN1C(=O)N[C@]2(CCc3cc(-c4cnn(C)c4)ccc32)C1=O)C(F)(F)F [Compound 14] | 1.26 µM | 0.33 µM | 89% | > 10 µM | > 10 µM | 74% | – | – | – | – | – | – | particularly selective and potent cell growth suppression effect | selective and potent Cell growth suppression effect | IC50 ([3]; TOV112D): 1.02 µM; IC50 [5, 15]: 0.012 µM; IC50 [6, 16]: 0.15 µM; IC50 [8, 17]: 5.2 µM; IC50 [11]: 1.3 µM
